The text below walks through data of patent publication US8283339B2, “Vinyl phosphonate lysophosphatidic acid receptor antagonists” (University of Virginia Patent Foundation, priority 2006, dated 2012).

Where two headings read alike, the source gives them in different places.

The test system of assay [1] is osteo-tropic subclone of the human breast CA line, MDA MB-231. To be noted: athymic (nude) mice injected with MDA MB-231 subclone; as described in Boucharaba et al. (2006); cited from earlier work.
For assay [2], the system named is LPA inhibition of adenylyl cyclase activation in rat glioma C62B cells. Briefly: LPA-driven adenylyl cyclase inhibition in rat glioma cells (relief by antagonist). The class given is cell-based. To be noted: isoproterenol-stimulated cAMP accumulation, all in a dose-dependent manner, FIG. 3. An excerpt: FIG. 3 is a graphic representation of LPA-driven adenylyl cyclase inhibition in C6 glioma cells.
Rat glioma C62B cells accumulate cAMP in response to isoproterenol, and this stimulation of adenylyl cyclase is blocked by LPA. As shown, the LPA inhibition of adenylyl cyclase activation is relieved by addition of VPC51299, VPC52172, VPC52173, and VPC52178, all in a dose-dependent manner. Results are illustrated in FIG. 3.

Assay [3] concerns Adult male Sprague Dawley rats. Briefly: Chronic constriction injury (CCI) model of neuropathic pain: thermal hyperalgesia and mechanical allodynia. Type of assay: in vivo, rat. From the text: The chronic constriction injury (CCI) model of neuropathic pain (Bennett and Xie, Pain, 33 p 87-107 (1988)) was used to assess the efficacy of test compound VPC51299 in relieving thermal hyperalgesia and mechanical allodynia. Adult male Sprague Dawley rats were anesthetized and their sciatic nerves exposed at the level of mid-thigh. Four loose ligations of chromic gut suture were placed around the sciatic nerve and the wound was closed. For sham surgeries, the sciatic nerve was mobilized and the wound closed without ligation. The animals' responses to mechanical and thermal stimuli were assessed prior to CCI and at days 1, 3, 5, 7, and 14 after CCI.
Thermal hyperalgesia was measured using a Plantar Test Apparatus (IITC Inc, Woodland Hills, Calif.). Rats were placed on a warmed glass surface, allowed to acclimate, and a thermal stimulus was applied to the plantar surface of the hind paw. Paw withdrawal latency (PWL) is defined as the time from stimulus application to paw withdrawal. Results are illustrated in FIG. 9A.
Mechanical allodynia was measured two ways. First, a size 5.18 Von Frey monofilament (corresponding to 15.0 g.) was applied to the plantar surface of the hind paw (Touch Test Sensory Evaluator Kit from Stoelting Co., Wood Dale, Ill.). The number of paw withdrawals out of 10 three second trials was recorded. Results are illustrated in FIG. 9B. Second, the maximum withdrawal threshold was assessed using an electronic von Frey Anesthesiometer (IITC Inc, Woodland Hills, Calif.). Force was applied to the plantar surface of the hindpaw until the rat withdrew its paw. The maximum force applied to the paw before withdrawal was recorded. Results are illustrated in FIG. 9C.

Assay [4] concerns osteo-tropic subclone of the human breast CA line, MDA MB-231. The experiment in a line: Lytic bone metastasis in athymic (nude) mice. The class given is in vivo, mouse. To be noted: athymic (nude) mice injected with MDA MB-231 subclone; treated for two weeks; FIG. 13. How it is done: Mice are tested for assessing lytic bone metastasis. Athymic (nude) mice were injected with a osteo-tropic subclone of the human breast CA line, MDA MB-231. After two weeks the bones are scanned to assess the cancer in the bone. The cancer is treated for two weeks and the lesions are imaged. […] 103, pp. 9643-9648. The results are illustrated in FIG. 13.

Take `Cc1noc(-c2ccc(CSCCC(=O)O)cc2)c1NC(=O)OC(C)c1ccccc1Cl` (stereo not shown) [Kil6425]: the “size of lytic bone lesions in treated mice” value in assay [1] is reported as “significantly smaller”.

For `CCCCCCCCCCCCCCCC(=O)N[C@@H](/C=C/P(=O)(O)O)Cc1ccc(OCc2cc(OCC(F)(F)F)ccn2)cc1` [VPC51299, (3R)-(3-Hexadecanoylamino-4-{4-[4-(2,2,2-trifluoro-ethoxy)-pyridin-2-ylmethoxy]-phenyl}-trans-but-1-enyl)-phosphonic Acid], in assay [2], the “relief of LPA inhibition of adenylyl cyclase activation” value is listed as “relieved”. The “paw withdrawal latency (thermal stimulus), slower than vehicle treated rats” value in assay [3] (day 5, after 5 days of treatment, difference vs vehicle treated rats, Plantar Test) is 3.1 s. In addition, in assay [3] (day 5, after 5 days of treatment, electronic von Frey Anesthesiometer, difference vs vehicle treated rats), the “withdrawal threshold, higher than vehicle treated rats” value is 4.0 g. Besides, the “number of paw withdrawals (out of 10 trials), fewer than vehicle treated rats” value in assay [3] (day 5, after 5 days of treatment, size 5.18 Von Frey monofilament (15.0 g), difference vs vehicle treated rats) stood at 3.2 times. Further, the “efficacy in relieving thermal hyperalgesia and mechanical allodynia associated with CCI” value in assay [3] (rats with sciatic nerve ligation (CCI), FIGS. 9A-9C) is “effective in relieving some of the thermal hyperalgesia and mechanical allodynia”. Further, in assay [4], the “size of lytic bone lesions in treated mice” value was “significantly smaller”.

Take `CCCCCCCCCCCC(=O)N[C@@H](/C=C/P(=O)(O)O)Cc1ccc(OCc2cc(OCC(F)(F)F)ccn2)cc1` [VPC52172, (3R)-(3-Dodecanoylamino-4-{4-[4-(2,2,2-trifluoro-ethoxy)-pyridin-2-ylmethoxy]-phenyl}-trans-but-1-enyl)-phosphonic Acid]: the “relief of LPA inhibition of adenylyl cyclase activation” value in assay [2] is recorded as “relieved”.

Take `CCCCCCCCCC(=O)N[C@@H](/C=C/P(=O)(O)O)Cc1ccc(OCc2cc(OCC(F)(F)F)ccn2)cc1` [VPC52173, (3R)-(3-Decanoylamino-4-{4-[4-(2,2,2-trifluoro-ethoxy)-pyridin-2-ylmethoxy]-phenyl}-trans-but-1-enyl)-phosphonic Acid]: the “relief of LPA inhibition of adenylyl cyclase activation” value in assay [2] was “relieved”.

As for `CCCCCCCC(=O)N[C@@H](/C=C/P(=O)(O)O)Cc1ccc(OCc2cc(OCC(F)(F)F)ccn2)cc1` [VPC52178, (1R)-(3-octanoylamino-4-{4-[4-(2,2,2-trifluoro-ethoxy)-pyridin-2-ylmethoxy]-phenyl}-trans-but-1-enyl)-phosphonic Acid], the “relief of LPA inhibition of adenylyl cyclase activation” value in assay [2] is “relieved”.
